Test results published in ChEMBL document CHEMBL1201862, “PubChem BioAssay data set” (2004).
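Exposure lasted 48 hours, with cells grown in 96-well plates and compounds tested at five concentrations. GI50 is the concentration that inhibits growth by half.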 Calls of active or inactive are those of the source. Cut-off read from the data, not from the text of the source: active = GI50 up to about 1.1 µM and inactive = higher.

How the values were obtained:
Test in all cases: NCI-60 cell line screen, 48 h
DLD-1 = tested on: DLD-1
DMS-114 = tested on: DMS-114
KM-20L2 = tested on: KM-20L2
M19-MEL = tested on: M19-MEL
SNB-78 = tested on: SNB-78
XF498 = tested on: XF498
HOP-18 = tested on: HOP-18
LXFL 529 = tested on: LXFL 529
RXF 631 = tested on: RXF 631

Row | Structure (SMILES) | GI50 (DLD-1) | GI50 (DMS-114) | GI50 (KM-20L2) | GI50 (M19-MEL) | GI50 (SNB-78) | GI50 (XF498) | GI50 (HOP-18) | GI50 (LXFL 529) | GI50 (RXF 631)
1 | CC(=O)CNC(=O)OC(C)(C)C | > 100 µM (inactive) | > 100 µM (inactive) | > 100 µM (inactive) | > 100 µM (inactive) | > 100 µM (inactive) | > 100 µM (inactive) | – | – | –
2 | C1OC1CO[C@@H]1CO[C@H]2[C@@H]1OC[C@H]2OCC1CO1 (some centres not stated) | > 100 µM (inactive) | > 100 µM (inactive) | > 100 µM (inactive) | > 100 µM (inactive) | > 100 µM (inactive) | > 100 µM (inactive) | > 100 µM (inactive) | – | –
3 | O=C(COc1ccc2c(=O)cc(-c3ccc(Cl)cc3)oc2c1)N1CCN(c2ccccc2)CC1 | > 100 µM (inactive) | – | > 100 µM (inactive) | > 100 µM (inactive) | 5.11 µM (inactive) | > 100 µM (inactive) | – | 11.9 µM (inactive) | 6.58 µM (inactive)
4 | O=C(/C=C/c1cc(Cl)cc(Cl)c1O)c1cccc(O)c1 | 38.8 µM (inactive) | 35.9 µM (inactive) | 48.3 µM (inactive) | 26.5 µM (inactive) | 91.8 µM (inactive) | – | 31 µM (inactive) | 57.1 µM (inactive) | –
5 | CC(=O)/C=C/c1cccc(N=S)c1 | 4.88 µM (inactive) | 23 µM (inactive) | 13.8 µM (inactive) | 6.25 µM (inactive) | 32.8 µM (inactive) | > 100 µM (inactive) | 50 µM (inactive) | 5.78 µM (inactive) | 39 µM (inactive)
6 | COc1cc(C=O)c(-c2cc3c(cc2C2(C)OCCS2)OCO3)c(OC)c1OC (configuration not stated) | 16.7 µM (inactive) | 17.5 µM (inactive) | 4.08 µM (inactive) | – | 8.65 µM (inactive) | 9.66 µM (inactive) | – | 17.6 µM (inactive) | –
7 | COc1ccc(-c2nc3c(nc2-c2ccc(OC)cc2)C(N)=NS(=O)(=O)N3)cc1 | > 100 µM (inactive) | > 100 µM (inactive) | – | > 100 µM (inactive) | – | – | – | – | > 100 µM (inactive)
8 | CCOc1ccc(N2C(=O)/C(=C/c3ccc(N(CCC#N)CCC#N)cc3)N=C2c2cc([N+](=O)[O-])ccc2Cl)cc1 | 32.2 µM (inactive) | 33.9 µM (inactive) | – | 24.2 µM (inactive) | > 100 µM (inactive) | – | > 100 µM (inactive) | 30 µM (inactive) | 39.6 µM (inactive)
9 | O=C(/C=C1/Nc2ccc([N+](=O)[O-])cc2NC1O)c1cccc([N+](=O)[O-])c1 (configuration not stated) | 17.3 µM (inactive) | 32.1 µM (inactive) | 25.4 µM (inactive) | 58.3 µM (inactive) | > 100 µM (inactive) | > 100 µM (inactive) | – | 19.9 µM (inactive) | –
10 | O=C(c1ccc(Cl)cc1)C1OC12C(=O)Nc1ccccc12 (configuration not stated) | 2.42 µM (inactive) | 12.4 µM (inactive) | 19.4 µM (inactive) | 10.4 µM (inactive) | 16 µM (inactive) | 12.5 µM (inactive) | 13.9 µM (inactive) | 3.08 µM (inactive) | 17 µM (inactive)
11 | COC(=O)C1=C(C)N(NC(N)=O)C2(N)N(NC(N)=O)C(C)=C(C(=O)OC)C12C(=O)OC (configuration not stated) | > 100 µM (inactive) | > 100 µM (inactive) | > 100 µM (inactive) | > 100 µM (inactive) | > 100 µM (inactive) | > 100 µM (inactive) | > 100 µM (inactive) | > 100 µM (inactive) | > 100 µM (inactive)
12 | O=C(/C=C/c1ccc(OCCCCCCCCCCOc2ccc(/C=C/C(=O)c3ccc(Cl)cc3)cc2)cc1)c1ccc(Cl)cc1 | > 100 µM (inactive) | > 100 µM (inactive) | > 100 µM (inactive) | – | > 100 µM (inactive) | – | > 100 µM (inactive) | – | > 100 µM (inactive)
13 | Nc1nc2ncn(CC(O)CO)c2c(=S)[nH]1 (configuration not stated) | > 100 µM (inactive) | > 100 µM (inactive) | > 100 µM (inactive) | > 100 µM (inactive) | > 100 µM (inactive) | 23.4 µM (inactive) | > 100 µM (inactive) | > 100 µM (inactive) | > 100 µM (inactive)
14 | O=C1c2ccccc2C(=O)c2nc(-c3ccccc3)c(-c3ccccc3)nc21 | > 100 µM (inactive) | 1.21 µM (inactive) | 50.5 µM (inactive) | 0.427 µM (active) | > 100 µM (inactive) | 14.4 µM (inactive) | 26.7 µM (inactive) | > 100 µM (inactive) | 33.4 µM (inactive)
15 | c1ccc(SC23C4C5C6C4C2C6C53)nc1 (configuration not stated) | > 100 µM (inactive) | > 100 µM (inactive) | > 100 µM (inactive) | > 100 µM (inactive) | > 100 µM (inactive) | – | 4.86 µM (inactive) | > 100 µM (inactive) | > 100 µM (inactive)
16 | O=C(CC(=O)c1cccc2ccccc12)C(=O)NC1C2CC3CC(C2)CC1C3 (configuration not stated) | > 100 µM (inactive) | > 100 µM (inactive) | > 100 µM (inactive) | > 100 µM (inactive) | > 100 µM (inactive) | > 100 µM (inactive) | 60.1 µM (inactive) | > 100 µM (inactive) | > 100 µM (inactive)
17 | CN(C)C(=S)Nc1nnc(Nc2ccccc2)s1 | > 100 µM (inactive) | – | > 100 µM (inactive) | > 100 µM (inactive) | > 100 µM (inactive) | – | > 100 µM (inactive) | > 100 µM (inactive) | > 100 µM (inactive)
18 | CCCCN(Cc1ccccc1)/C(=N/C#N)N(Cc1ccccc1)Cc1ccccc1 | 24.9 µM (inactive) | – | 6.82 µM (inactive) | 24.4 µM (inactive) | 24.2 µM (inactive) | – | – | 7.94 µM (inactive) | –
19 | COC(=O)/C=C/c1cc(OC)c(OC)c(OC)c1 | > 100 µM (inactive) | > 100 µM (inactive) | > 100 µM (inactive) | 93.8 µM (inactive) | – | > 100 µM (inactive) | > 100 µM (inactive) | > 100 µM (inactive) | 82.4 µM (inactive)
20 | Cc1ccc(C2(O)CC(c3ccc([N+](=O)[O-])o3)=NN2C(=O)COc2ccc(Cl)cc2)cc1 (configuration not stated) | 3.23 µM (inactive) | 9.86 µM (inactive) | 7.18 µM (inactive) | 3.67 µM (inactive) | 12.9 µM (inactive) | 11.4 µM (inactive) | 20.9 µM (inactive) | 2.79 µM (inactive) | –
21 | COc1ccc(/C(=N\NC(=N)N)C(c2ccc(OC)cc2)C2OC(=O)c3ccccc32)cc1 (configuration not stated) | > 100 µM (inactive) | > 100 µM (inactive) | > 100 µM (inactive) | > 100 µM (inactive) | > 100 µM (inactive) | > 100 µM (inactive) | – | > 100 µM (inactive) | > 100 µM (inactive)
22 | CCC/C(=N\NC(=S)N1CCN(c2ccccn2)CC1)c1ccccn1 | < 0.001 µM (active) | < 0.001 µM (active) | < 0.001 µM (active) | 0.0366 µM (active) | 0.583 µM (active) | < 0.001 µM (active) | 0.00887 µM (active) | < 0.001 µM (active) | 0.133 µM (active)
23 | C1=CC(N(c2ccccc2)C2C=CCCC2)CCC1 (configuration not stated) | > 100 µM (inactive) | 67.3 µM (inactive) | 72.6 µM (inactive) | > 100 µM (inactive) | – | – | > 100 µM (inactive) | > 100 µM (inactive) | –
24 | O=C1Nc2ccccc2C12CCNC2Cc1ccccc1 (configuration not stated) | > 100 µM (inactive) | > 100 µM (inactive) | > 100 µM (inactive) | > 100 µM (inactive) | – | > 100 µM (inactive) | 78.3 µM (inactive) | > 100 µM (inactive) | –
25 | COc1ccc(C2S/C(=C\c3ccc([N+](=O)[O-])cc3)C(=O)N2NC(=O)Cc2ccccc2)cc1 (configuration not stated) | > 100 µM (inactive) | 45.8 µM (inactive) | – | > 100 µM (inactive) | – | – | > 100 µM (inactive) | > 100 µM (inactive) | –
